Data on three compounds can be found in publication PMC3271139 (Nature, 2012).

The target of test [1] is T1, truncated, His-tagged human CYP17A1 (Homo sapiens, UniProt P05093, C22K/P23T/R20A/R21K).
T1 sequence (P05093 with tags, fused parts or gaps limits assumed): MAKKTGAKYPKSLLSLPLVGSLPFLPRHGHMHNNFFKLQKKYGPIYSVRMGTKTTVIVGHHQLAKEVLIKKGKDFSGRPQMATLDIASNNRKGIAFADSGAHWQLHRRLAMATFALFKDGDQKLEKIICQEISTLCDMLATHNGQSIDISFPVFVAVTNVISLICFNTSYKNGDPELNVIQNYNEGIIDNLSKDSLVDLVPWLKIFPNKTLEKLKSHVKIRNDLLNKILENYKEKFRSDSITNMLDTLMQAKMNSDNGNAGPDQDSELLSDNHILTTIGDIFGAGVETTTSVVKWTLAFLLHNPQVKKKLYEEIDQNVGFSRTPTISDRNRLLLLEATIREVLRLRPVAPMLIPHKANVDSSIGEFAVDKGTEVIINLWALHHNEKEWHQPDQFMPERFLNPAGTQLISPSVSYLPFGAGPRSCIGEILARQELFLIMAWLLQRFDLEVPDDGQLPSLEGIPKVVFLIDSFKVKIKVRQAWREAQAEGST
Briefly: UV/vis spectral shift ligand binding assay.

The next test concerns the target T2, truncated human CYP17A1 (Homo sapiens, UniProt P05093, C22K/P23T/R20A/R21K).
T2 sequence (P05093 with tags, fused parts or gaps limits assumed): T1 sequence (P05093 with tags, fused parts or gaps limits assumed)
Briefly: Progesterone 17α-hydroxylation, HPLC separation with UV detection. In kind it is biochemical.

For orientation: Kd means a measure of binding affinity in units of concentration. What is called IC50 is the midpoint of a concentration-inhibition curve. Read a low IC50 as greater potency.

Consider `C[C@]12CC[C@H](O)CC1=CC[C@@H]1[C@@H]2CC[C@]2(C)C(n3cnc4ccccc43)=CC[C@@H]12` [TOK-001, 3β-hydroxy-17-(1H-benzimidazole-1-yl)androsta-5,16-diene], for which the equilibrium dissociation constant (Kd) in test [1] was less than 0.1 µM. At truncated human CYP17A1, this compound registered a concentration for half-maximal inhibition (IC50) of 0.503 ± 0.001 µM.

Consider `C[C@]12CC[C@H](O)CC1=CC[C@@H]1[C@@H]2CC[C@]2(C)C(c3cccnc3)=CC[C@@H]12` [abiraterone, 17-(3-pyridyl)androsta-5,16-dien-3β-ol], for which the Kd in test [1] is less than 0.1 µM. Besides, the midpoint of inhibition at truncated human CYP17A1, the IC50, lay at 0.201 ± 0.001 µM.

For the compound `CC(=O)[C@H]1CC[C@H]2[C@@H]3CCC4=CC(=O)CC[C@]4(C)[C@H]3CC[C@]12C` [progesterone], the dissociation constant Kd in test [1] is 0.229 ± 0.014 µM.
